Laboratory results from PMC6522981, “Structure-based design generated novel hydroxamic acid based preferential HDAC6 lead inhibitor with on-target cytotoxic activity against primary choroid plexus carcinoma” (Journal of Enzyme Inhibition and Medicinal Chemistry, 2019).
Where two headings read alike, the source gives them in different places. Values belong to the compound of their own block, whether it stands above or below them.

Experiments:
human HDAC1 = biological target: T1, human HDAC1 (Homo sapiens, UniProt Q13547); experiment: HDAC1 inhibitor enzymatic assay, % inhibition at fixed concentration (BPS Bioscience, fluorogenic); assay type: biochemical; conditions: read-out: %inhibition of HDACs at 10µM of test compound HDAC1; 10 µM compound; mean of two replicates
T1 construct: purchased BPS Bioscience 50051

human HDAC6 [1] = biological target: T2, human HDAC6 (Homo sapiens, UniProt Q9UBN7); experiment: HDAC6 inhibitor enzymatic assay, % inhibition at fixed concentration; conditions: for inhibition at 10 µM: read-out: %inhibition of HDACs at 10µM of test compound HDAC6
T2 sequence (Q9UBN7 1-1215): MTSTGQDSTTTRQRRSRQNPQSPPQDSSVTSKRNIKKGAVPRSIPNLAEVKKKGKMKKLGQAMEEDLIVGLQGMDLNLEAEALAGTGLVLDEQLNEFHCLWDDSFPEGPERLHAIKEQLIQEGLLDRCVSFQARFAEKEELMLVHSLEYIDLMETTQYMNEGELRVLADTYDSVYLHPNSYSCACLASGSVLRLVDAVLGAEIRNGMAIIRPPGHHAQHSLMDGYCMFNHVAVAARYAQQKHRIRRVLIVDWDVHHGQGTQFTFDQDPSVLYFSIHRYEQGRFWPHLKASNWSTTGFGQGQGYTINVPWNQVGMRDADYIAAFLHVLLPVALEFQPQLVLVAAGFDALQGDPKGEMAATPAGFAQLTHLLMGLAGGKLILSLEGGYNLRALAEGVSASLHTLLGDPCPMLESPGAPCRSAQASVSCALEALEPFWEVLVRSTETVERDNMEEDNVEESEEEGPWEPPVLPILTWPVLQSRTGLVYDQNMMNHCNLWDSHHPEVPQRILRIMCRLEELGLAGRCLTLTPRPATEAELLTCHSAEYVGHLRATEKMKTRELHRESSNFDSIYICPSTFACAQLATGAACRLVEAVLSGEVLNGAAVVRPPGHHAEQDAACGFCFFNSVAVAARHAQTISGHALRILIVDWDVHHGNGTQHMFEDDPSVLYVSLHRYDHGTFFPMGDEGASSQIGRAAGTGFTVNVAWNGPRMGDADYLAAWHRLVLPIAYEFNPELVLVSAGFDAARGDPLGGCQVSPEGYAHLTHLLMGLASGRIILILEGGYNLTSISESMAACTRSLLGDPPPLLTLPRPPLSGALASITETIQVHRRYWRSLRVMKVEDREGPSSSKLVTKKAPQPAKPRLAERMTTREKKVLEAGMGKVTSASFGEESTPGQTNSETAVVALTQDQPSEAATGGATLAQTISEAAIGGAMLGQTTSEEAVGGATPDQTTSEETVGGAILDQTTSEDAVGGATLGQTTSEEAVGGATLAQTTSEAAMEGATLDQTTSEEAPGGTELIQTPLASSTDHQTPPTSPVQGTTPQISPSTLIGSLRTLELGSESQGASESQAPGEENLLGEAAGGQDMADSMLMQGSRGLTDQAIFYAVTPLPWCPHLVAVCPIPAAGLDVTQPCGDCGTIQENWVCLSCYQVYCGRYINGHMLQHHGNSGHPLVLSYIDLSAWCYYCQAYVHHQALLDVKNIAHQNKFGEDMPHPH

human HDAC2 = biological target: T3, human HDAC2 (Homo sapiens, UniProt Q92769); experiment: HDAC2 inhibitor enzymatic assay, % inhibition at fixed concentration; assay type: biochemical; conditions: read-out: %inhibition of HDACs at 10µM of test compound HDAC2; 10 µM compound; mean of two replicates
T3 construct: purchased BPS Bioscience 50002

human HDAC8 = biological target: T4, human HDAC8 (Homo sapiens, UniProt Q9BY41); experiment: HDAC8 inhibitor enzymatic assay, % inhibition at fixed concentration; assay type: biochemical; conditions: for inhibition at 10 µM: read-out: %inhibition of HDACs at 10µM of test compound HDAC8
T4 construct: purchased BPS Bioscience 50008
T4 sequence (Q9BY41 1-377): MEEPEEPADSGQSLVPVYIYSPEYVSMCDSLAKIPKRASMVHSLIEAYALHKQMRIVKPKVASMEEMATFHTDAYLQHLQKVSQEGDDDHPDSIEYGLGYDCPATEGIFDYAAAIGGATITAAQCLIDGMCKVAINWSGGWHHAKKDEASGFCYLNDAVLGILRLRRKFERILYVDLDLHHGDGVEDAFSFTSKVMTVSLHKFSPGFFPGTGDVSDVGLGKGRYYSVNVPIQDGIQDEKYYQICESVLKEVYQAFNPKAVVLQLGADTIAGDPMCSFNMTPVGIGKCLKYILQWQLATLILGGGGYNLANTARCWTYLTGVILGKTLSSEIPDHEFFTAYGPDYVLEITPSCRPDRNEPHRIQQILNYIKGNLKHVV

human HDAC11 = biological target: T5, human HDAC11 (Homo sapiens, UniProt Q96DB2); experiment: HDAC11 inhibitor enzymatic assay, % inhibition at fixed concentration
T5 sequence (Q96DB2 1-347): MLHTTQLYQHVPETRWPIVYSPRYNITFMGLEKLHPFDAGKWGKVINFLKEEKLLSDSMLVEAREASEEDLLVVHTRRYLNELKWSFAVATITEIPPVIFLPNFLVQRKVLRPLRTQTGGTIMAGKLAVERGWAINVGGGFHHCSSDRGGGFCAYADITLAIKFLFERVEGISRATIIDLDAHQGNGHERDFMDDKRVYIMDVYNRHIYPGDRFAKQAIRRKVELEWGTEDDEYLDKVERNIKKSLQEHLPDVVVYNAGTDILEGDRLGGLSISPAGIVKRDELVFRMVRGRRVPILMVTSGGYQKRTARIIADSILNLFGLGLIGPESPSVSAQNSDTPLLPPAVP

human HDAC6 [2] = biological target: T2, human HDAC6; experiment: IC50 of the test inhibitor against HDAC6 (10-dose enzymatic assay); assay type: biochemical; parameters: purchased BPS Bioscience 50006
human HDAC9 = human HDAC9 (Homo sapiens, UniProt Q9UKV0); experiment: HDAC9 inhibitor enzymatic assay, % inhibition at fixed concentration
human HDAC4 = human HDAC4 (Homo sapiens, UniProt P56524); experiment: HDAC4 inhibitor enzymatic assay, % inhibition at fixed concentration
human HDAC5 = human HDAC5 (Homo sapiens, UniProt Q9UQL6); experiment: HDAC5 inhibitor enzymatic assay, % inhibition at fixed concentration
[3] = tested on: CCHE-45 cells (primary choroid plexus carcinoma); experiment: Cytotoxicity assay using xCELLigence system; assay type: cell-based; conditions: xCELLigence, 96 h exposure; mean of three replicates; read-out: CCHE-45 IC50 (µM)±SEM
Method: Established primary Choroid plexus carcinoma (CCHE-45) were cultured as previously described, in RPMI-1640 (Lonza, BE-12-702F) supplemented with 10% Fetal Bovine Serum (FBS, Gibco, 12483–020) and 100 U/ml penicillin and 100 µg/ml streptomycin (Lonza, DE17-602F). Cells were maintained at 37 °C in a 5% CO2 humidified atmosphere.
Cytotoxicity assay by the xCELLigence system was performed using RTCA xCELLigence DP system (ACEA Biosciences, Inc., San Diego, CA, USA) as per manufacturer’s instructions https://www.aceabio.com/products/rtca-dp/, https://www.aceabio.com/products/rtca-sp[65–68]. In brief, after setting up the instruments and blanking the wells with media, CCHE-45 cells were seeded into the 96 well E-plate (ACEA Biosciences) with a density of 20,000 cells/well. Attachment and growth of the cells were monitored every 1 h. Approximately 24 h after seeding, when the cells were in the log growth phase, the cells were exposed to a range of test compound 10a concentrations (3.125, 6.25, 12.5, 25, 50, 100, 200, 400) µM for 96 h. Controls received either medium alone, or medium + DMSO with a final concentration below of 0.5%. For each concentration, duplicates were tested. Experiments were conducted in three biological repeats. Results were analyzed using the RTCA software (Version 2.0). Data was exported and average IC50 value was analyzed.
• Based on previous pilot experiment, the highest SK114 conc. (100µM)
72hrs, thus this experiment was performed with higher concentration
• Cells were incubated with the drug for 96hrs
• Experiment was done in technical duplicates

[4] = read-out: HDAC6 % Activity Repeat1
[5] = read-out: HDAC6 % Activity Repeat2

T1 sequence (Q13547 whole entry): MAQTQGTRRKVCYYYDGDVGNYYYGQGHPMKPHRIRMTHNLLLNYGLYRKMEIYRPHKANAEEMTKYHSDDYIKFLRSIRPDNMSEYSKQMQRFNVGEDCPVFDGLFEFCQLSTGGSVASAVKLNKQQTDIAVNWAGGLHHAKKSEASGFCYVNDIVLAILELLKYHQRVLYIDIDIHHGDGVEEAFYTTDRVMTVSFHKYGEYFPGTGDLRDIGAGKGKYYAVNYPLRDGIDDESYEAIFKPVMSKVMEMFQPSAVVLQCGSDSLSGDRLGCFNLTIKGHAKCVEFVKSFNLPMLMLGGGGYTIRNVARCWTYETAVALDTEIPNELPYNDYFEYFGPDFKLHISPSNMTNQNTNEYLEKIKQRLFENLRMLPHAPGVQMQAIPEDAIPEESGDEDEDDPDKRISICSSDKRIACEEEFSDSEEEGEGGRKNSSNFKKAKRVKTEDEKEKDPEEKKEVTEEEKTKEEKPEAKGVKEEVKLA
human HDAC5, sequence (Q9UQL6 656-1122 limits assumed): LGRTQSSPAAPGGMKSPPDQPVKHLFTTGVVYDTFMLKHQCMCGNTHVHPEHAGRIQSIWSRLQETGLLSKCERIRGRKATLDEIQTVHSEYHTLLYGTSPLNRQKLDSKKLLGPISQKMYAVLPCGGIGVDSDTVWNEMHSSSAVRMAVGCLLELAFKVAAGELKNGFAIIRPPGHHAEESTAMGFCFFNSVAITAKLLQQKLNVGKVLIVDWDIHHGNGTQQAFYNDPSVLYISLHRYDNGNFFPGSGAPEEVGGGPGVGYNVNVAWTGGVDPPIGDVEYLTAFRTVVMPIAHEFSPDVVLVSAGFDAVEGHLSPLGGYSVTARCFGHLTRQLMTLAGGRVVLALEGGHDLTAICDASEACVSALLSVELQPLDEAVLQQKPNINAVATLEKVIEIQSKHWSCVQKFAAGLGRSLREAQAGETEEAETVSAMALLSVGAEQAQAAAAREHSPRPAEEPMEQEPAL
human HDAC9, sequence (Q9UKV0 1-1066 isoform Q9UKV0-5): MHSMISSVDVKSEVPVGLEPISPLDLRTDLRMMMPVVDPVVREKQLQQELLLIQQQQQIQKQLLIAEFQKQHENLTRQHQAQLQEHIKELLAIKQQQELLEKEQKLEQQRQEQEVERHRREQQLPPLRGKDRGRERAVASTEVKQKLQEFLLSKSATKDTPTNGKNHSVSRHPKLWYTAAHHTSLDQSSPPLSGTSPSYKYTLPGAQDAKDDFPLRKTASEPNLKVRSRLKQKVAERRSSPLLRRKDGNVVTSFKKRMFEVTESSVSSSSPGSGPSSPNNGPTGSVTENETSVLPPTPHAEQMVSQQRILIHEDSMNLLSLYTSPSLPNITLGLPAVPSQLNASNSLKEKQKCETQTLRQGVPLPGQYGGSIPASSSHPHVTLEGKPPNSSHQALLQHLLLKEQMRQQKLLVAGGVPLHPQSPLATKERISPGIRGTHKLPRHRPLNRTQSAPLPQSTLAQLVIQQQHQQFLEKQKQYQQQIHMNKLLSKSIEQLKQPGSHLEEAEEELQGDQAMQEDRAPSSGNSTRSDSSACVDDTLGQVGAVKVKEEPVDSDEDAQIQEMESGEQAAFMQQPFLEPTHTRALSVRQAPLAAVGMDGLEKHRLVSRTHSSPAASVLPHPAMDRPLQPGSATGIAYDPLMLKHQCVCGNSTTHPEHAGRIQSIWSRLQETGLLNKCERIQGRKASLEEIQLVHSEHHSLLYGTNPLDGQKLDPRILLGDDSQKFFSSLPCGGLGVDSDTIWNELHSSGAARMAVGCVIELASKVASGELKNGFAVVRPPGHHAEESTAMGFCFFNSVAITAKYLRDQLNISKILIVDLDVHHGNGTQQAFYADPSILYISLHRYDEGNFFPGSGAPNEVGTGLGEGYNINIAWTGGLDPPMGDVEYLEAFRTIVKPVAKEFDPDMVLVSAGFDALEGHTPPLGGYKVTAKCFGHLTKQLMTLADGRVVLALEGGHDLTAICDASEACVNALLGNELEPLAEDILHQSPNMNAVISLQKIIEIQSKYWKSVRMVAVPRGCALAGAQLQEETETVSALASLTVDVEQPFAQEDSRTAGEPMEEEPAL
human HDAC4, sequence (P56524 627-1084 limits assumed): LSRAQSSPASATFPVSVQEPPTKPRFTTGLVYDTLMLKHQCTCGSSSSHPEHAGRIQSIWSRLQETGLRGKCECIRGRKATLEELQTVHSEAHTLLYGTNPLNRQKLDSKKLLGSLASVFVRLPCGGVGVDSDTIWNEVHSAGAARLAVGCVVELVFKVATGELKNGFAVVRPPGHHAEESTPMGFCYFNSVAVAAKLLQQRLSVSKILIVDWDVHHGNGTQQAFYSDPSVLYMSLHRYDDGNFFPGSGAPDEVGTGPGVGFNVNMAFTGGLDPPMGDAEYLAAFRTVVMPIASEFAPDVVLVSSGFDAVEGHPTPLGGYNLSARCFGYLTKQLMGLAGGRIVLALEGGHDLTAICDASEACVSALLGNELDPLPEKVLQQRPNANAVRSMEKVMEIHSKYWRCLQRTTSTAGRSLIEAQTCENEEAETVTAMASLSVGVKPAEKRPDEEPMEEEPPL
T3 sequence (Q92769 whole entry): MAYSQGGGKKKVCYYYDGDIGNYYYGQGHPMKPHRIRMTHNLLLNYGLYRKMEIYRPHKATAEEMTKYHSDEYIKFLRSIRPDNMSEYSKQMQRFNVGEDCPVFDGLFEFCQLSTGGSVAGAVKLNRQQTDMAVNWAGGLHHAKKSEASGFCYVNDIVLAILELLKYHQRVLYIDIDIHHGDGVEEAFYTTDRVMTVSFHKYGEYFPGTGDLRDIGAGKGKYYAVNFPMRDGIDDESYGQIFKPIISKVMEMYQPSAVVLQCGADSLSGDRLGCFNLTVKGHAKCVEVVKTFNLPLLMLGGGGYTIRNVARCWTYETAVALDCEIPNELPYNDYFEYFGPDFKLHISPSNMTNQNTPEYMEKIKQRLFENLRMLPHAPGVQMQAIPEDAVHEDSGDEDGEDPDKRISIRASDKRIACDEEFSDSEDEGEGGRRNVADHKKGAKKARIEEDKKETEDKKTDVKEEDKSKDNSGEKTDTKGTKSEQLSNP

SMILES: O=C(CSc1nc2ccccc2n1CC1CCCCC1)NO [Compound 6c, 2-((1-(Cyclohexylmethyl)-1H-benzo[d]imidazol-2-yl)thio)-N-hydroxyacetamide]
melting point: 160 °C
inhibition at 10 µM (human HDAC1): 13%
inhibition at 10 µM (human HDAC6 [1]): 2%
inhibition at 10 µM (human HDAC2): 7%
inhibition at 10 µM (human HDAC8; 10 µM compound): 14%

SMILES: O=C(CSc1nc2ccccc2n1Cc1ccccc1)NO [Compound 6a, 2-((1-benzyl-1H-benzo[d]imidazol-2-yl)thio)-N-hydroxyacetamide]
melting point: 97 °C
inhibition at 10 µM (human HDAC1): 6%
inhibition at 10 µM (human HDAC6 [1]): 2%
inhibition at 10 µM (human HDAC2): 5%
inhibition at 10 µM (human HDAC8; 10 µM compound): 14%

SMILES: CC(=C/C(C)C(=O)c1ccc(N(C)C)cc1)/C=C/C(=O)NO (centres unmarked) [TSA, Trichostatin A, reference compound]
inhibition at 1 µM (human HDAC11; read-out: % Inhibition HDAC11): 15%
inhibition at 100 µM (human HDAC11; read-out: % Inhibition HDAC11): 91%
inhibition at 10 µM (human HDAC11; read-out: %inhibition of HDACs at 10µM of test compound HDAC11): 49%
activity at 30 pM (human HDAC6 [2]; [4]): 100%
activity at 0.0001 µM (human HDAC6 [2]; [4]): 98%
activity at 0.0003 µM (human HDAC6 [2]; [4]): 96%
activity at 0.001 µM (human HDAC6 [2]; [4]): 79%
activity at 0.003 µM (human HDAC6 [2]; [4]): 63%
activity at 0.01 µM (human HDAC6 [2]; [4]): 36%
activity at 0.03 µM (human HDAC6 [2]; [4]): 15%
activity at 0.1 µM (human HDAC6 [2]; [4]): 5%
activity at 0.3 µM (human HDAC6 [2]; [4]): 2%
activity at 1 µM (human HDAC6 [2]; [4]): 0%
activity at 30 pM (human HDAC6 [2]; [5]): 98%
activity at 0.0001 µM (human HDAC6 [2]; [5]): 96%
activity at 0.0003 µM (human HDAC6 [2]; [5]): 89%
activity at 0.001 µM (human HDAC6 [2]; [5]): 84%
activity at 0.003 µM (human HDAC6 [2]; [5]): 58%
activity at 0.01 µM (human HDAC6 [2]; [5]): 34%
activity at 0.03 µM (human HDAC6 [2]; [5]): 13%
activity at 0.1 µM (human HDAC6 [2]; [5]): 5%
activity at 0.3 µM (human HDAC6 [2]; [5]): 2%
activity at 1 µM (human HDAC6 [2]; [5]): 0%
inhibition at 1 µM (human HDAC9; read-out: % Inhibition HDAC9): 15%
inhibition at 100 µM (human HDAC9; read-out: % Inhibition HDAC9): 95%
inhibition at 10 µM (human HDAC9; read-out: %inhibition of HDACs at 10µM of test compound HDAC9): 60%
inhibition at 1 µM (human HDAC6 [1]; read-out: % Inhibition HDAC6): 100%
inhibition at 1 µM (human HDAC4; read-out: % Inhibition HDAC4): 36%
inhibition at 100 µM (human HDAC4; read-out: % Inhibition HDAC4): 92%
inhibition at 10 µM (human HDAC4; read-out: %inhibition of HDACs at 10µM of test compound HDAC4): 64%
inhibition at 1 µM (human HDAC5; read-out: % Inhibition HDAC5): 33%
inhibition at 100 µM (human HDAC5; read-out: % Inhibition HDAC5): 93%
inhibition at 10 µM (human HDAC5; read-out: %inhibition of HDACs at 10µM of test compound HDAC5): 64%
inhibition at 1 µM (human HDAC8; read-out: % Inhibition HDAC8): 53%
inhibition at 10 µM (human HDAC8): 89%

SMILES: O=C(CSc1nc2ccccc2n1Cc1ccc(Br)cc1)NO [Compound 6b, 2-((1–(4-bromobenzyl)-1H-benzo[d]imidazol-2-yl)thio)-N-hydroxyacetamide]
melting point: 167 °C
inhibition at 10 µM (human HDAC1): 18%
inhibition at 10 µM (human HDAC6 [1]): 6%
inhibition at 10 µM (human HDAC2): 6%
inhibition at 10 µM (human HDAC8; 10 µM compound): 12%

SMILES: O=C(CCCCCCC(=O)Nc1ccc([C@H]2O[C@@H](CSc3nc(-c4ccccc4)c(-c4ccccc4)o3)C[C@@H](c3ccc(CO)cc3)O2)cc1)NO [Tubacin, reference compound]
IC50 [3]: 20 ± 10.2 µM

SMILES: O=C(CSc1nc2ccccc2n1CCC1CCCCC1)NO [Compound 6d, 2-((1–(2-cyclohexylethyl)-1H-benzo[d]imidazol-2-yl)thio)-N-hydroxyacetamide]
melting point: 157 °C
inhibition at 10 µM (human HDAC1): 14%
inhibition at 10 µM (human HDAC6 [1]): 2%
inhibition at 10 µM (human HDAC2): 3%
inhibition at 10 µM (human HDAC8; 10 µM compound): 1%

Further lines, results first:

melting point: 132 °C
inhibition at 10 µM (human HDAC1): 11%
inhibition at 10 µM (human HDAC6 [1]): 35%
inhibition at 10 µM (human HDAC2): 8%
inhibition at 10 µM (human HDAC8; 10 µM compound): 10%
SMILES: O=C(CCCSc1nc2ccccc2n1CCC1CCCCC1)NO [Compound 10d, 4-((1–(2-cyclohexylethyl)-1H-benzo[d]imidazol-2-yl)thio)-N-hydroxybutanamide]

melting point: 153 °C
inhibition at 10 µM (human HDAC1): 9%
inhibition at 10 µM (human HDAC6 [1]): 12%
inhibition at 10 µM (human HDAC2): 9%
inhibition at 10 µM (human HDAC8; 10 µM compound): 1%
SMILES: O=C(CCCSc1nc2ccccc2n1Cc1ccc(Br)cc1)NO [Compound 10b, 4-((1–(4-bromobenzyl)-1H-benzo[d]imidazol-2-yl)thio)-N-hydroxybutanamide]

melting point: 149 °C
inhibition at 10 µM (human HDAC1): 9%
inhibition at 10 µM (human HDAC6 [1]): 14%
inhibition at 10 µM (human HDAC2): 8%
inhibition at 10 µM (human HDAC8; 10 µM compound): 12%
SMILES: O=C(CCCSc1nc2ccccc2n1CC1CCCCC1)NO [Compound 10c, 4-((1-(Cyclohexylmethyl)-1H-benzo[d]imidazol-2-yl)thio)-N-hydroxybutanamide]
